Data: ChEMBL document CHEMBL3430912, “GSK Tres Cantos Anti-Kinetoplastid Screening (TCAKS) Data”

Columns and labels:
Trypanosoma cruzi [1] = assay: GSK_TCAKS: pIC50 Trypanosoma cruzi viability assay using beta-GAL activity. This assay was run at single shot at 5uM compound concentration per well. The biological reagents consisted of NIH-3T3 host cells and trypomastigotes parasitic cells; both cell types were set to a 3.3 * 10^5 cells/mL dilution in assay DMEM by means of a CASY cell counter device using a 60um capillary. 6 uL of the mixture were dispensed per well (about 1 * 10^3 host-cells and 1 * 10^3 parasites) with a Multidrop Combi dispenser. […] In all wells, the percentage of DMSO never exceeded 0.5%. Plates incubated for four days at 37C, 5% CO2. The substrate used for the assay fluorescence intensity (FLINT) readout was resorufin-beta-D-galactopiranoside (Sigma-Aldrich) at 5uM per well. It was diluted in PBS supplemented with the soft detergent Igepal (Fluka).; type: functional, organism-based, Mus musculus; details: Tulahuen, NIH3T3
Trypanosoma cruzi [2] = assay: (§1) GSK_TCAKS: pIC50 Trypanosoma cruzi Imaging: Infected Cells. […] Cells were then washed once with PBS before infection. T. cruzi trypomastigotes, collected at days 5 to 8 after infection from LLC-MK2 parasite infected cultures, were allowed to swim out for 4h at 37C from a centrifuged pellet (2,500 rpm/10 min/room temperature). Trypomastigotes were then collected and counted in a CASY Cell Counter. Trypomastigotes, in supplemented DMEM, were added to H9c2 cultures in a multiplicity of infection of 1 and incubated for 18 h. Cells were washed once with PBS before incubation of the infected H9c2 monolayer with trypsin (Life-Technologies) to detach cells from the flask. Cells were counted in a CASY Cell Counter using a 150 um capillary and their density set at 5 * 10^4 cells per mL in supplemented assay DMEM. Infected H9c2 were dispensed into 384-well poly-lysine coated assay plates at 50uL per well using a Multidrop Combi dispenser. After seeding them, the plates were incubated at 37C, 5% CO2 for 72h. Cultures were then fixed and stained by addition of 50 uL of a solution containing 8% formaldehyde and 4 uM DRAQ5 DNA dye (BioStatus, UK) per well. […] Five images were collected per well for reliable statistical analysis. Automated image analysis was performed with a script developed on Acapella High Content Imaging and Analysis Software (PerkinElmer). Output: percentage of infected cells per well as a second infection marker.; type: functional, organism-based, Rattus norvegicus; details: H9c2, 4 h
Trypanosoma cruzi [3] = assay: GSK_TCAKS: pIC50 Trypanosoma cruzi Imaging: Amastigotes/Cell. […] Cells were then washed once with PBS before infection. T. cruzi trypomastigotes, collected at days 5 to 8 after infection from LLC-MK2 parasite infected cultures, were allowed to swim out for 4h at 37C from a centrifuged pellet (2,500 rpm/10 min/room temperature). Trypomastigotes were then collected and counted in a CASY Cell Counter. Trypomastigotes, in supplemented DMEM, were added to H9c2 cultures in a multiplicity of infection of 1 and incubated for 18 h. Cells were washed once with PBS before incubation of the infected H9c2 monolayer with trypsin (Life-Technologies) to detach cells from the flask. Cells were counted in a CASY Cell Counter using a 150 um capillary and their density set at 5 * 10^4 cells per mL in supplemented assay DMEM. Infected H9c2 were dispensed into 384-well poly-lysine coated assay plates at 50uL per well using a Multidrop Combi dispenser. After seeding them, the plates were incubated at 37C, 5% CO2 for 72h. Cultures were then fixed and stained by addition of 50 uL of a solution containing 8% formaldehyde and 4 uM DRAQ5 DNA dye (BioStatus, UK) per well. […] Five images were collected per well for reliable statistical analysis. Automated image analysis was performed with a script developed on Acapella High Content Imaging and Analysis Software (PerkinElmer). Output: number of amastigotes per cell as infection level measurement.; type: functional, organism-based, Rattus norvegicus; details: H9c2, 4 h
Trypanosoma cruzi [4] = assay: as §1, with “H2C9” for “Trypanosoma cruzi”, “H9c2 Host Cardiomyocytes.” for “Infected Cells.”, “Number” for “percentage”, “H9c2 Host Cardiomyocytes nuclei to determine drug-related cytotoxicity.” for “infected cells per well as a second infection marker.”; type: functional, organism-based, Rattus norvegicus; details: H9c2, 4 h
Leishmania donovani [5] = assay: GSK_TCAKS: pIC50 Leishmania donovani viability assay using fluorescence intensity. Assay plates (1536-well) were prepared by adding 30nL per well of compound. For single shot assay, the final compound concentration was 5uM. […] Briefly, eGFP LdBOB axenic amastigotes were harvested, fixed and counted in a CASY cell counter (Roche-Applied Science). A final concentration of 1.5 * 10^5 cells per well were prepared in amastigote media containing 500 U/mL penicillin/streptomycin (Invitrogen) and 6uL was dispensed to each experimental well using a Multidrop Combi dispenser (Thermo Scientific). 6uL of assay media was dispensed to control columns used as reference for 100% compound response. Following incubation for 72 h at 37C, 5% CO2, 2 uL of resazurin was added to each well at a final concentration of 0.5 mM in phosphate buffered saline (PBS) with IGEPAL (Sigma-Aldrich), 0.05% (v/v).; type: functional, organism-based
Leishmania donovani [6] = assay: (§2) GSK_TCAKS: pIC50 Leishmania donovani Imaging: Infected Macrophages. Assay plates (384-well) were prepared by adding 250nL of compound to each well. For single shot assay, the final compound concentration was 5 uM. […] Automated image analysis was performed with a script developed on Acapella High Content Imaging and Analysis Software (PerkinElmer). Output: Percent of infected macrophage cells were reported for each well.; type: functional, organism-based, Homo sapiens; details: THP-1
Leishmania donovani [7] = assay: as §2, with “Amastigotes/Macrophages.” for “Infected Macrophages.”, “Average number” for “Percent”, “amastigotes per” for “infected”, “cell” for “cells”; type: functional, organism-based, Homo sapiens; details: THP-1
Leishmania donovani [8] = assay: as §2, with “THP-1 Host” for “Infected”, “THP-1 cell count” for “Percent of infected macrophage cells”; type: functional, organism-based, Homo sapiens
[9] = system: Trypanosoma brucei brucei; assay: GSK_TCAKS: pIC50 Trypanosoma brucei viability assay using fluorescence intensity. Assay plates (1536-well) were prepared by dispensing 25nL of compound solution per well using an Echo acoustic dispenser (Labcyte).; type: functional, organism-based; details: Lister 427, 2 h
[10] = system: Trypanosoma brucei brucei; assay: GSK_TCAKS: pIC50 Trypanosoma brucei viability assay using luminiscence. Assay plates (1536-well) were prepared. T. brucei cultures were harvested and counted in a CASY cell counter. A parasite suspension was prepared at a final concentration of 5 * 10^4 cells/mL in complete HMI9 medium and 6uL was dispensed to all wells containing compounds using a Multidrop Combi dispenser. 6uL of HMI9 media with 0.4% DMSO were dispensed to control columns. Plates were incubated for 24 h at 37C, 5% CO2 then tempered for 10 min at room temperature. ATP content was quantified by adding 4 uL of CellTiter-Glo Reagent (Promega) according to the manufacturer's instructions. Luminescence was measured using a ViewLux.; type: functional, organism-based; details: Lister 427, CASY
[11] = GSK_TCAKS: pIC50 HepG2 human cell line viability assay using luminiscence. […] Seeding density was checked to ensure that new mono-layers were not more than 50% confluent at the time of harvesting. Cell suspension was added to 500 mL of the same medium at a final density of 1.2 * 10^5 cells/mL. This cell suspension was dispensed (25 uL, 3000 cells per well) into 384-well clear-bottom plates using a Multidrop Combi dispenser. Prior to addition of the cell suspension, the screening compounds (250 nL) were pre-dispensed into the plates with an Echo liquid handler. Plates were incubated for 48 h at 37C, 5% CO2. After incubation, plates equilibrated at room temperature for 30 min before proceeding to develop the luminescent signal. The signal developer, CellTiter-Glo Reagent, was allowed to equilibrate at room temperature for 30 min and added to the plates (25uL per well) using a Multidrop Combi dispenser. Plates were left for 10 min at room temperature for stabilization and then read using a ViewLux.; type: toxicity, cell-based
NIH3T3 = assay: GSK_TCAKS: pIC50 NIH 3T3 cell line viability assay using luminiscence. Tissue culture surface treated assay plates (1536-well) were used. […] The 100% cells survival control was determined exposing the host-cells to a 0.5% DMSO concentration, whereas the 100% toxicity control was achieved by seeding the cells in presence of Amphotericin B at 50uM. Plates were incubated for four days at 37C, 5% CO2. The assay readout was developed by addition of 5uL of CellTiter-Glo Reagent following the manufacturer's instructions. Luminiscence was measured using a ViewLux.; type: functional, cell-based; details: Mus musculus, NIH3T3, 96 h
[12] = target: Sterol 14-alpha demethylase (Trypanosoma cruzi (strain CL Brener), UniProt Q7Z1V1); assay: GSK_TCAKS: pIC50 CYP51 from Trypanosoma cruzi.; type: functional
Sequence of Sterol 14-alpha demethylase (Q7Z1V1 whole entry): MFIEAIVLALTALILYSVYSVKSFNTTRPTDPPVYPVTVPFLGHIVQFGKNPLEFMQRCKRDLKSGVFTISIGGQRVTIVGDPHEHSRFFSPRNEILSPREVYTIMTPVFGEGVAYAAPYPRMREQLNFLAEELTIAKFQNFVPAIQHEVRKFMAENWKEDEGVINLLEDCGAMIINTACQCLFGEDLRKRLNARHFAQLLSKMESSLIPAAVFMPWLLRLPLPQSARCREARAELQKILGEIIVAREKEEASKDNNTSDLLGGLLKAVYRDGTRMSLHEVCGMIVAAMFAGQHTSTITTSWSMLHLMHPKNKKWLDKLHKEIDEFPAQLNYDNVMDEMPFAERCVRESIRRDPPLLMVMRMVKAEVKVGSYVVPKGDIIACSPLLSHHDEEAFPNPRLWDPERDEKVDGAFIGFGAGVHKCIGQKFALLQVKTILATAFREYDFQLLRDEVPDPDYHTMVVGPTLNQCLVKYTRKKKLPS

Row | Compound | IC50 (Trypanosoma cruzi [1]) [µM] | IC50 (Trypanosoma cruzi [2]) [µM] | IC50 (Trypanosoma cruzi [3]) [µM] | IC50 (Trypanosoma cruzi [4]) [µM] | IC50 (Leishmania donovani [5]) [µM] | IC50 (Leishmania donovani [6]) [µM] | IC50 (Leishmania donovani [7]) [µM] | IC50 (Leishmania donovani [8]) [µM] | IC50 [9] [µM] | IC50 [10] [µM] | IC50 at 48 h [11] [µM] | IC50 (NIH3T3) [µM] | IC50 [12] [µM]
1 | CN(C)Cc1ccc(N2CCC(NS(=O)(=O)c3ccc(Cl)cc3)CC2)cc1 | 0.794 | 0.316 | 0.251 | 12.6 | 39.8 | > 50.1 | 25.1 | 25.1 | 25.1 | 31.6 | 50.1 | 15.8 | > 100
2 | Cn1nccc1-c1cc(OC(CN)c2ccccc2)cnc1-c1ccco1 (centres undefined) | 0.398 | 0.1 | 0.1 | > 50.1 | > 50.1 | > 50.1 | 31.6 | 15.8 | 12.6 | 15.8 | 50.1 | 20 | 0.0631
3 | O=c1[nH]c(C=Cc2cccc(OCCOc3ccccc3)c2)nc(O)c1[N+](=O)[O-] | 0.794 | 0.2 | 0.158 | > 50.1 | > 50.1 | > 50.1 | > 50.1 | > 50.1 | 10 | 10 | > 100 | > 50.1 | > 100
4 | O=C(c1cc2cc(Cl)ccc2[nH]1)N1CCCCC1c1cccnc1 (centres undefined) | 0.251 | 0.126 | 0.126 | 31.6 | 50.1 | 31.6 | 10 | 15.8 | 25.1 | 15.8 | 39.8 | 39.8 | 0.0631
5 | Clc1ccc(Sc2cnccc2N2CCOCC2)cc1 | 0.141 | 0.126 | 0.1 | > 50.1 | 7.94 | > 50.1 | 10 | > 50.1 | 25.1 | > 39.8 | > 100 | > 50.1 | 0.0316
6 | COc1ccc(C(C)N(C)c2ncc3c(N)nc(N)nc3n2)cc1F (centres undefined) | 0.0794 | 0.2 | 0.0631 | 25.1 | 3.98 | 15.8 | 12.6 | > 50.1 | 12.6 | 5.01 | > 100 | 39.8 | > 100
7 | Cc1[nH]c2ccccc2c(=O)c1Cc1c(C)[nH]c2ccccc2c1=O | 2.51 | 3.16 | 1 | > 50.1 | 20 | > 50.1 | > 50.1 | > 50.1 | > 39.8 | > 39.8 | > 100 | > 50.1 | > 100
8 | Cc1c(CNC(=O)c2ccc(Cn3cc(Cl)c([N+](=O)[O-])n3)cc2)cnn1C | 1 | 1.58 | 0.794 | > 50.1 | > 50.1 | > 50.1 | > 50.1 | > 50.1 | 5.01 | 10 | > 100 | > 50.1 | > 100
